Source: patent US20220362249A1, “METHODS FOR TREATING […]” (PTC Therapeutics MP, Inc., priority 2019, published 2022)
Like-named read-outs stand apart in the source and are kept apart here.

Assays:
Type in all cases: in vivo, human
[1] = Pharmacokinetic analysis of multiple doses of sepiapterin (once daily for 7 days, fed subjects)
Text: Methods: Three cohorts of eight fed subjects each were randomized to receive once-daily sepiapterin or placebo for 7 days in a 6:2 ratio. A sentinel dose strategy was also used for administration of the highest sepiapterin dose.

[2] = Comparison of adverse events in fed and fasted subjects; details: single dose 10 mg/kg, twelve subjects
Description: Method: Twelve subjects were given a single dose (10 mg/kg) of sepiapterin under fasting conditions and then 7 days later under fed conditions. Standard definitions of adverse events (AE) were used. All-cause AE were those that occurred at any time; treatment-emergent adverse events (TEAE) were those that occurred at or after the time of administration of study treatment. TEAEs related to study drug were based on the opinion of the investigator. Serious AE were defined as life threatening or caused death, hospitalization or prolongation of existing hospitalization, or were a persistent or significant disability/incapacity or a substantial disruption of the ability to conduct normal life functions, or a congenital anomaly/birth defect.

[3] = Adverse events in patients with PKU on PTC923 or sapropterin dihydrochloride; details: for Headache (all-cause AE): transient
Text: PTC923 safety was monitored and adverse events (AEs) were coded using the Medical Dictionary for Regulatory Activities (MedDRA®) version 21.0. Treatment-emergent adverse events (TEAEs) were defined as AE that began on or after first dose of study drug. A TEAE was associated with the study treatment currently being received, or the last study treatment before its onset. A treatment-related TEAE was, in the judgment of the investigator possibly, probably or definitely related to treatment. A serious AE (SAE) was defined as resulting in death, life-threatening AE, inpatient hospitalization or prolongation of existing hospitalization, a persistent or significant disability/incapacity or a substantial disruption of the ability to conduct normal life functions, or a congenital anomaly/birth defect.

[4] = Food effect on administration of sepiapterin: plasma sepiapterin and BH4 concentrations, fasted vs fed; details: sepiapterin 10 mg/kg oral; for concentration at 0 h / concentration at 0.5 h / concentration at 1 h / concentration at 2 h / concentration at 4 h / concentration at 8 h / concentration at 12 h / concentration at 24 h: human, oral, 10 mg/kg; for concentration at 0 h: 0 h (predose)
Description: Method: Subjects received 2 oral doses of sepiapterin (10 mg/kg) separated by 1 week in a fasted and fed state. Subjects were fed a standard high-fat (approximately 50 percent of total caloric content of the meal) and high-calorie (approximately 800 to 1000 calories) meal starting 30 minutes prior to receiving their second oral dose of sepiapterin on Day 8.
Sampling for PK analysis occurred predose on Days 1 and 8 (within 30 minutes before dosing) and 0.5 hr, 1 hr, 2 hr, 4 hr, 8 hr, 12 hr, and 24 hr after the doses on Days 1 and 8. The blood concentrations of sepiapterin and BH4 were analyzed by MNG Labs.

[5] = plasma, fasted, read-out: Concentration in Plasma, Maximum
[6] = plasma, fasted, read-out: Concentration in Plasma, Mean
[7] = plasma, fasted, read-out: Concentration in Plasma, Median
[8] = plasma, fasted, read-out: Concentration in Plasma, Minimum
[9] = plasma, fed (high-fat meal), read-out: Concentration in Plasma, Maximum
[10] = plasma, fed (high-fat meal), read-out: Concentration in Plasma, Mean
[11] = plasma, fed (high-fat meal), read-out: Concentration in Plasma, Median
[12] = plasma, fed (high-fat meal), read-out: Concentration in Plasma, Minimum

With `C[C@H](O)C(=O)C1=Nc2c(nc(N)[nH]c2=O)NC1` [sepiapterin, Sepiapterin] the Cmax ([1]; Day 1, sepiapterin 20 mg/kg once daily, fed) was 1.2 ng/mL, the AUC0-24 ([1]; Day 7, sepiapterin 60 mg/kg once daily, fed) was 23 ng·h/mL and the “Drug accumulation after 1 and 7 days of treatment (in words)” value ([1]; once-daily sepiapterin for 7 days) was “no drug accumulation”. For the same molecule, the TEAE ([2]; Fasted) was 4, the “TEAE related to study drug” value ([2]; Fasted) was 1 and the “≥1 AE” value ([2]; Fasted) was 5. For the same molecule, the TEAE ([2]; Fed) was 1, the “TEAE related to study drug” value ([2]; Fed) was 0 and the “≥1 AE” value ([2]; Fed) was 1. The “Patients reporting any adverse event” value ([3]; 20 mg/kg) was 25%, the “Patients reporting severe AE” value ([3]; 20 mg/kg) was 4% and the “Patients reporting treatment-related AE” value ([3]; 20 mg/kg) was 0%. The “Headache (all-cause AE)” value ([3]; 20 mg/kg) was 4%, the “Patients reporting any adverse event” value ([3]; 60 mg/kg) was 29% and the “Patients reporting severe AE” value ([3]; 60 mg/kg) was 0%. The “Patients reporting treatment-related AE” value ([3]; 60 mg/kg) was 13%, the “Headache (all-cause AE)” value ([3]; 60 mg/kg) was 17% and the concentration at 0 h [4, 5] was 0 nM. For the same molecule, the concentration at 0 h [4, 6] was 0 nM, the concentration at 0 h [4, 7] was 0 nM and the concentration at 0 h [4, 8] was 0 nM. For the same molecule, the concentration at 0.5 h [4, 5] was 7.23 nM, the concentration at 0.5 h [4, 6] was 2.85 nM and the concentration at 0.5 h [4, 7] was 2.32 nM. For the same molecule, the concentration at 0.5 h [4, 8] was 0 nM, the concentration at 1 h [4, 5] was 10.2 nM and the concentration at 1 h [4, 6] was 5.43 nM. It also gave a concentration at 1 h [4, 7] of 4.82 nM, a concentration at 1 h [4, 8] of 3.15 nM and a concentration at 2 h [4, 5] of 6.65 nM. The concentration at 2 h [4, 6] was 4.63 nM, the concentration at 2 h [4, 7] was 4.71 nM and the concentration at 2 h [4, 8] was 2.52 nM. It also gave a concentration at 4 h [4, 5] of 3.93 nM, a concentration at 4 h [4, 6] of 1.88 nM and a concentration at 4 h [4, 7] of 2.37 nM. The concentration at 4 h [4, 8] was 0 nM, the concentration at 8 h [4, 5] was 0 nM and the concentration at 8 h [4, 6] was 0 nM. It also gave a concentration at 8 h [4, 7] of 0 nM, a concentration at 8 h [4, 8] of 0 nM and a concentration at 12 h [4, 5] of 0 nM. It also gave a concentration at 12 h [4, 6] of 0 nM, a concentration at 12 h [4, 7] of 0 nM and a concentration at 12 h [4, 8] of 0 nM. For the same molecule, the concentration at 24 h [4, 5] was 0 nM, the concentration at 24 h [4, 6] was 0 nM and the concentration at 24 h [4, 7] was 0 nM. For the same molecule, the concentration at 24 h [4, 8] was 0 nM, the concentration at 0 h [4, 9] was 0 nM and the concentration at 0 h [4, 10] was 0 nM. For the same molecule, the concentration at 0 h [4, 11] was 0 nM, the concentration at 0 h [4, 12] was 0 nM and the concentration at 0.5 h [4, 9] was 3.22 nM. It also gave a concentration at 0.5 h [4, 10] of 0.63 nM, a concentration at 0.5 h [4, 11] of 0 nM and a concentration at 0.5 h [4, 12] of 0 nM. For the same molecule, the concentration at 1 h [4, 9] was 4.57 nM, the concentration at 1 h [4, 10] was 2.38 nM and the concentration at 1 h [4, 11] was 2.42 nM. The concentration at 1 h [4, 12] was 0 nM, the concentration at 2 h [4, 9] was 5.92 nM and the concentration at 2 h [4, 10] was 2.96 nM. For the same molecule, the concentration at 2 h [4, 11] was 2.91 nM, the concentration at 2 h [4, 12] was 0 nM and the concentration at 4 h [4, 9] was 5.56 nM. The concentration at 4 h [4, 10] was 2.96 nM, the concentration at 4 h [4, 11] was 2.5 nM and the concentration at 4 h [4, 12] was 0 nM. For the same molecule, the concentration at 8 h [4, 9] was 2.19 nM, the concentration at 8 h [4, 10] was 0.18 nM and the concentration at 8 h [4, 11] was 0 nM. It also gave a concentration at 8 h [4, 12] of 0 nM, a concentration at 12 h [4, 9] of 0 nM and a concentration at 12 h [4, 10] of 0 nM. The concentration at 12 h [4, 11] was 0 nM, the concentration at 12 h [4, 12] was 0 nM and the concentration at 24 h [4, 9] was 0 nM. The concentration at 24 h [4, 10] was 0 nM, the concentration at 24 h [4, 11] was 0 nM and the concentration at 24 h [4, 12] was 0 nM. For the same molecule, the “Geometric mean ratio (fasted/fed, 90% CI) for AUClast” value ([4]; plasma) was 1.29 (0.84 to 2.00), the “Geometric mean ratio (fasted/fed, 90% CI) for Cmax” value ([4]; plasma) was 1.57 (1.21 to 2.0) and the “Cmax in the plasma, fed compared to fasted subjects (in words)” value [4] was “much lower”.
